Assay results: patent US4760081A, “1,6-naphthyridine derivatives useful for treating diseases of the blood vessels” (Goedecke Aktiengesellschaft, priority 1984, dated 1988)
Where a name gives a salt, the structure may show the parent alone. Read-outs that look alike come from different tables or passages of the source.

Columns and labels:
[1] = test system: isolated papillary muscle of the guinea pig; assay: Isolated papillary muscle: isometric contraction under field stimulation; format: cell-based; conditions: for IC50: read-out: IC50 /100 (IC = inhibition concentration, IC100 corresponds to maximum action) (converted)
Excerpt: However, it cannot be excluded that the dimethyl sulfoxide used as a solvent has contributed to the observed positive inotropic action.

arteria coronaria = assay: Isolated smooth muscle: inhibition of K+ depolarization contraction of blood vessel rings in an organ bath, A. coronaria; format: cell-based; conditions: rabbit, average diameter 0.5-1.0 mm, read-out: IC50, semi-maximum inhibition of the K+ depolarization contraction of blood vessel rings, A. cor.
Excerpt: (§1) Isolated smooth muscle from rabbits (blood vessel rings, A. basilaris, A. coronaria, A. saphena) are fixed in an organ bath in such a manner that isometric contractions can be measured. The contraction is initiated by a potassium depolarization in tyrode solution.

arteria basilaris = assay: Isolated smooth muscle: inhibition of K+ depolarization contraction of blood vessel rings in an organ bath, A. basilaris; format: cell-based; conditions: rabbit, average diameter 0.5-1.0 mm, read-out: IC50, semi-maximum inhibition of the K+ depolarization contraction of blood vessel rings, A. bas.
Excerpt: as §1

arteria saphena = assay: Isolated smooth muscle: inhibition of K+ depolarization contraction of blood vessel rings in an organ bath, A. saphena; format: cell-based; conditions: rabbit, average diameter 0.5-1.0 mm, read-out: IC50, semi-maximum inhibition of the K+ depolarization contraction of blood vessel rings, A. saph.
Excerpt: as §1

[2] = test system: papillary muscle of the rabbit; conditions: Hof and Scholtysik, cited from earlier work
[3] = Cavia porcellus, papillary muscle of guinea pig, 250/min, 10 msec, 10-20 V field stimulation

Row | Molecule | IC50 [1, 3] [nM] | IC50 (arteria coronaria; Oryctolagus cuniculus) [nM] | IC50 (arteria basilaris; Oryctolagus cuniculus) [nM] | IC50 (arteria saphena; Oryctolagus cuniculus) [nM] | further results
1 | COC(=O)C1=C(C)Nc2ccnc(OC(C)C)c2C1c1ccccc1F (racemic) [Example 1, Methyl (±)-4-(2-fluorophenyl)-1,4-dihydro-5-isopropoxy-2-methyl-1,6-naphthyridine-3-carboxylate] | 300000 | 30 | 5 | 7 | –
2 | COC(=O)C1=C(C)Nc2ccnc(OC(C)C)c2C1c1ccccc1[N+](=O)[O-] (racemic) [Example 1b, methyl (±)-1,4-dihydro-5-isopropoxy-2-methyl-4-(2-nitrophenyl)-1,6-naphthyridine-3-carboxylate] | – | 0.75 | 0.66 | 3.4 | –
3 | COC(=O)C1=C(C)Nc2ccnc(OC(C)C)c2C1c1ccccc1 (racemic) [Example 1c, methyl (±)-1,4-dihydro-5-isopropoxy-2-methyl-4-phenyl-1,6-naphthyridine-3-carboxylate] | – | 65 | 15 | 1000 | activation at 0.3 µM ([1]; Cavia porcellus, 3×10^-7 mol/liter, read-out: maximum increase of the contractility): 36%; activation at 0.004 µM ([1]; Cavia porcellus, 4×10^-9 mol/liter, read-out: increase of the contractility): 18%
4 | COC(=O)C1=C(C)Nc2ccnc(OC(C)C)c2C1c1c(F)cccc1Cl (racemic) [Example 1g, methyl (±)-4-(2-chloro-6-fluorophenyl)-1,4-dihydro-5-isopropoxy-2-methyl-1,6-naphthyridine-3-carboxylate] | – | 3.2 | 5.9 | – | –
5 | CCCOc1nccc2c1C(c1ccccc1C(F)(F)F)C(C(=O)OC)=C(C)N2 (racemic) [Example 1h, methyl (±)-1,4-dihydro-2-methyl-5-propoxy-4-(2-trifluoromethylphenyl)-1,6-naphthyridine-3-carboxylate] | – | 15 | 3000 | 1000 | –
6 | CCOC(=O)C1=C(C)Nc2ccnc(OC(C)C)c2C1c1ccccc1C(F)(F)F (racemic) [Example 1l, ethyl (±)-1,4-dihydro-5-isopropoxy-2-methyl-4-(2-trifluoromethylphenyl)-1,6-naphthyridine-3-carboxylate] | 120000 | 31 | 7.4 | 390 | –
7 | CCOC(=O)C1=C(C)Nc2ccnc(OC(C)CC)c2C1c1ccccc1C(F)(F)F (racemic) [Example 1p, ethyl (±)-5-sec-butoxy-1,4-dihydro-2-methyl-4-(2-trifluoromethylphenyl)-1,6-napthyridine-3-carboxylate hydrochloride] | 10000 | 53 | 16 | – | –
8 | CCOC(=O)C1=C(C)Nc2ccnc(OCC(C)C)c2C1c1ccccc1C(F)(F)F (racemic) [Example 1q, ethyl (±)-1,4-dihydro-5-isobutoxy-2-methyl-4-(2-trifluoromethylphenyl)-1,6-naphthyridine-3-carboxylate] | 10000 | 190 | 35 | – | –
9 | COC(=O)C1=C(C)Nc2ccnc(OC)c2C1c1ccccc1 (racemic) [Example 2, Methyl (±)-1,4-dihydro-5-methoxy-2-methyl-4-phenyl-1,6-naphthyridine-3-carboxylate] | – | 1000 | 250 | 90 | –
10 | CCOC(=O)C1=C(C)Nc2ccnc(OC)c2C1c1ccccc1Cl (racemic) [Example 2a, ethyl (±)-4-(2-chlorophenyl)-1,4-dihydro-5-methoxy-2-methyl-1,6-naphthyridine-3-carboxylate] | – | 10 | 6 | 600 | –
11 | CCOC(=O)C1=C(C)Nc2ccnc(OC)c2C1c1cccc([N+](=O)[O-])c1 (racemic) [Example 2b, ethyl (±)-1,4-dihydro-5-methoxy-2-methyl-4-(3-nitrophenyl)-1,6-naphthyridine-3-carboxylate] | – | 12 | 1.8 | 600 | –
12 | COc1ccc([C@@H]2Sc3ccccc3N(CCN(C)C)C(=O)[C@@H]2OC(C)=O)cc1 [diltiazem, reference compound] | 10000 | 170 | 120 | 2900 | –
13 | COC(=O)C1=C(C)NC(C)=C(C(=O)OC)C1c1ccccc1[N+](=O)[O-] [nifedipine, reference compound] | – | 5 | 2.7 | 59 | IC50 ([2]; read-out: IC50 /100 (IC = inhibition concentration, IC100 corresponds to maximum action)): 1000 nM; Δ% = maximum decrease of the contractility [2]: -80%
14 | methyl (±)-4-(2-bromoethyl)-1,4-dihydro-5-isopropoxy-2-methyl-1,6-naphthyridine-3-carboxylate [Example 1a] | – | – | – | – | Δ% = maximum decrease of the contractility ([1]; at IC100, papillary muscle of guinea pig, 250/min, 10 msec, 10-20 V field stimulation): -48%; IC50 ([1]; papillary muscle of guinea pig, 250/min, 10 msec, 10-20 V field stimulation): 300000 nM; IC50 (arteria coronaria): 2.7 nM; IC50 (arteria basilaris): 2.4 nM; IC50 (arteria saphena): 8 nM
